{"source": "patent US20210072238A1", "about": "“IMMOBILIZATION OF PROTEINS WITH CONTROLLED ORIENTATION AND LOAD” (Oregon State University, priority 2019, published 2021)", "origin": "cited, not measured here", "conditions": "ncAA incorporated in protein"}
{"smiles": "Cc1nnc(-c2ccc(C[C@H](N)C(=O)O)cc2)nn1", "note": "[Tet2.0, (S)-2-amino-3-(4-(6-methyl-1,2,4,5-tetrazin-3-yl)phenyl) propanoic acid]", "values": [{"measurement": "second-order in proteo reaction rate with sTCO", "result": "~72,000 M^−1 s^−1"}]}
